ChEMBL document CHEMBL1201862, “PubChem BioAssay data set” (2004)
The source made the active and inactive calls.

Experiments:
[1] = intracellular Trypanosoma cruzi inhibitors in host cells – cell-based, plate reader, cherry-pick samples, set 3, dose response (AID 651818); type: functional;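 also: compounds incubated with infected cells for about four days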
Estrogen receptor = target: T1, Estrogen receptor (Homo sapiens, UniProt P03372);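 also: potency for inhibiting coactivator peptide recruitment to the receptor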
T1 sequence (P03372 whole entry): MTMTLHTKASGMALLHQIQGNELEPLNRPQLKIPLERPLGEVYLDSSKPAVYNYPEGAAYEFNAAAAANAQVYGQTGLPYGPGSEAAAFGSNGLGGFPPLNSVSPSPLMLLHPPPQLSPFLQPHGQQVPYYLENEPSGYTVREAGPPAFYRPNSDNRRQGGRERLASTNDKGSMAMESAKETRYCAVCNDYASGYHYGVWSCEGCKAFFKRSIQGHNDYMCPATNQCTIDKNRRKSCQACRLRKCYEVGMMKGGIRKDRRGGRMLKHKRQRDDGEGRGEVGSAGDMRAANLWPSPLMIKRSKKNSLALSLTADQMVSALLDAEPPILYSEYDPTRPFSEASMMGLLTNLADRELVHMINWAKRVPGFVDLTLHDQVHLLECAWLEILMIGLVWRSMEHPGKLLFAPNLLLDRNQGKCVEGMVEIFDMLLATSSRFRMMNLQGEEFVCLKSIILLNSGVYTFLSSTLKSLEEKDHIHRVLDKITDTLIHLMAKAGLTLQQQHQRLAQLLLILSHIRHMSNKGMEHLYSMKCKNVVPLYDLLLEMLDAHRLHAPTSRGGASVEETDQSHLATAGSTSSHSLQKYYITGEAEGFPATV

[2] = target: T2, Carboxy-terminal domain RNA polymerase II polypeptide A small phosphatase 1 (Homo sapiens, UniProt Q9GZU7); experiment: inhibitors of CTDSP1, concentration-response testing, biochemical assay, absorbance-based, actives from ultra-high-throughput screening (AID 540297); type: functional
T2 sequence (Q9GZU7 whole entry): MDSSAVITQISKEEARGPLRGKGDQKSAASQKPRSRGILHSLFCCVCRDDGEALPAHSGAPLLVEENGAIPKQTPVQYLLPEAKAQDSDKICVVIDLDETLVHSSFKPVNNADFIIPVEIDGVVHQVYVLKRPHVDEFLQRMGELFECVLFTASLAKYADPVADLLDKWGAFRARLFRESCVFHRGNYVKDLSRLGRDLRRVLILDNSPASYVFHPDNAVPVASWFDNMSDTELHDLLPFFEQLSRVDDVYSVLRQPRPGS

[3] = NIH-3T3 fibroblast cytotoxicity, dose response, cytotoxicity control, cell-based, fluorescence, Alamar Blue, secondary assay (AID 2327); type: functional;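 also: NIH-3T3 mouse fibroblasts cultured with fluconazole at 8 µg/mL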
[4] = C. albicans growth with fluconazole, confirmation, fluorescence, retest (AID 2467); type: functional, cell-based
[5] = microbe, parasite or virus in culture; type: functional; details: Mycobacterium tuberculosis
[6] = target: T3, Serine/threonine-protein phosphatase (Candida dubliniensis (strain CD36 / CBS 7987 / NCPF 3949 / NRRLY-17841) (Yeast), UniProt B9W6M3); experiment: calcineurin pathway inhibitors in yeast reporter, dose response, S. cerevisiae, CDRE-lacZ, luminescence, secondary (AID 2388); type: functional, cell-based;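 also: yeast reporter cells carrying a calcineurin-responsive lacZ construct stimulated with calcium chloride; luminescent beta-galactosidase reporter signal in whole cells rather than isolated phosphatase activity; potency for inhibition where a drop in reporter signal means calcineurin blockade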
T3 sequence (B9W6M3 whole entry): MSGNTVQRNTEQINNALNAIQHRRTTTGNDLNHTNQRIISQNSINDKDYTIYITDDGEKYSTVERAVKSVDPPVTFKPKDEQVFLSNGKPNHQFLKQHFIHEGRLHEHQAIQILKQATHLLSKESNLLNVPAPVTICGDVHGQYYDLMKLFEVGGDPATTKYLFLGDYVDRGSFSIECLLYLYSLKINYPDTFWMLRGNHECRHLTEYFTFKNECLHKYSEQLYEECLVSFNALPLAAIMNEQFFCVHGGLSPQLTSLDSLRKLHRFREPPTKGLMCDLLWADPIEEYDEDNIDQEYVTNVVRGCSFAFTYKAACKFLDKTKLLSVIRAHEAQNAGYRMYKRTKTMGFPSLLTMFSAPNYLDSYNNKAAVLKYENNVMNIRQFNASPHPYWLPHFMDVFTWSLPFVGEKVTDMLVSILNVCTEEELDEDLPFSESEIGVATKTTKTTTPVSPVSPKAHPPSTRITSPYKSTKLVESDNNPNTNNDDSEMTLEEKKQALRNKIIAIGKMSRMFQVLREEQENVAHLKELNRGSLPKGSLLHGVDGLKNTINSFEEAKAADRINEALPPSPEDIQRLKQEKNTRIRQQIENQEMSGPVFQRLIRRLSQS

[7] = THP-1 cell cytotoxicity, dose response, cytotoxicity control for non-replicating M. tuberculosis project (AID 489025); type: functional
[8] = Luminescence Cell-Based Dose Retest to Confirm Inhibitors of Cancer Stem Cells. [Related pubchem assays (depositor defined):AID2717, AID2721]; type: functional; details: Homo sapiens
[9] = HepG2 cell cytotoxicity, dose response, cytotoxicity control for non-replicating M. tuberculosis project (AID 489018); type: functional; details: Mycobacterium tuberculosis
[10] = Vero E6 cell cytotoxicity, dose response, cytotoxicity control for non-replicating M. tuberculosis project, secondary assay (AID 492998); type: functional, VeroE6; details: Vero C1008
cells = type: functional
[11] = target: ATP-dependent molecular chaperone HSP82 (Candida albicans (strain WO-1) (Yeast), UniProt C4YTQ8); experiment: loss of DOC-induced GRE-beta-galactosidase reporter signal, dose response, Hsp90 inhibitor project, S. cerevisiae, luminescence (AID 2400); type: functional, cell-based;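 also: beta-galactosidase luminescence from glucocorticoid response element reporter as proxy for Hsp90 function; inhibitor potency where signal loss means Hsp90 inhibition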
Sequence of ATP-dependent molecular chaperone HSP82 (C4YTQ8 whole entry, the tested form may be a part): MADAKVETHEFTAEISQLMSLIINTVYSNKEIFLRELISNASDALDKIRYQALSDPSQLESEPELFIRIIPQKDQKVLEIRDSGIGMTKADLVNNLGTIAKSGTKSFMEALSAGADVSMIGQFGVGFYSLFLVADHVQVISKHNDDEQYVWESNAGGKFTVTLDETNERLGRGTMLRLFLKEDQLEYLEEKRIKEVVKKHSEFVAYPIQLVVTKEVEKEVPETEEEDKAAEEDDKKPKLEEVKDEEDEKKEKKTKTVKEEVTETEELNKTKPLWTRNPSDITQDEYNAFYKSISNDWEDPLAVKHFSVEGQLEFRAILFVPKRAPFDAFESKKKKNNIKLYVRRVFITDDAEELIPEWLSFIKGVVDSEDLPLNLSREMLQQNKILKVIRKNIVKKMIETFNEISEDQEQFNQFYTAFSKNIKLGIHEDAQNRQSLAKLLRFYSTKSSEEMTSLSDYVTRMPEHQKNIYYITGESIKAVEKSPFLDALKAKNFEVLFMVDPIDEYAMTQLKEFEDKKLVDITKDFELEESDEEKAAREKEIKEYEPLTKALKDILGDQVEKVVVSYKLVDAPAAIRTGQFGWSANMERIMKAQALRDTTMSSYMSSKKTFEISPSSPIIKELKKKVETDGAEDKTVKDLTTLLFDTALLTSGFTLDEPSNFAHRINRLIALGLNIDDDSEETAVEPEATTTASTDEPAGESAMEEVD

[12] = target: T4, RNA-binding protein pos-1 (Caenorhabditis elegans, UniProt G5EF15); experiment: inhibitors of POS-1/mex-3 RNA binding, dose response, biochemical, fluorescence polarization (AID 1964);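 also: purified POS-1 fused to maltose binding protein made in E. coli; potency of compounds blocking POS-1 binding to fluorescent RNA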
T4 sequence (G5EF15 whole entry): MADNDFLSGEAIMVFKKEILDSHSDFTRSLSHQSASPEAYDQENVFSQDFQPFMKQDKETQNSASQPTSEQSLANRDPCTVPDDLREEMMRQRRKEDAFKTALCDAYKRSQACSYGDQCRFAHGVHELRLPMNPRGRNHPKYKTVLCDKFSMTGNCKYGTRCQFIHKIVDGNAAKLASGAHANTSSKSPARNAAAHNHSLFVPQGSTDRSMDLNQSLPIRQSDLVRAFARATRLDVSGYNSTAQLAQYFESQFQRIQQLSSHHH

[13] = target: T5, Zinc finger protein mex-5 (Caenorhabditis elegans, UniProt Q9XUB2); experiment: MEX-5/TCR-2 RNA interaction inhibitors, dose response, biochemical, C. elegans, fluorescence polarization (AID 1960)
T5 sequence (Q9XUB2 whole entry): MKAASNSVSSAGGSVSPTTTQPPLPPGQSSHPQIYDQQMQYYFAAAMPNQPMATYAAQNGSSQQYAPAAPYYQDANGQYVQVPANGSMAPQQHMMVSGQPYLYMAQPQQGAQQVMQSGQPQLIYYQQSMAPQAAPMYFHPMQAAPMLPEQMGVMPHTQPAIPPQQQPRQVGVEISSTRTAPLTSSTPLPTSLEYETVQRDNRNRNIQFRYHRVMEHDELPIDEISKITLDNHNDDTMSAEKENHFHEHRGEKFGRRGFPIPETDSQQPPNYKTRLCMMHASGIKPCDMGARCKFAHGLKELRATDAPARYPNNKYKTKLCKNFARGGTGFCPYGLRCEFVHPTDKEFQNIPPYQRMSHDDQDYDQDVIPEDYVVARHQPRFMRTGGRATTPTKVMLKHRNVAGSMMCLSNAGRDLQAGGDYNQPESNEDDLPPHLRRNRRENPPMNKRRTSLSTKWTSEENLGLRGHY

[14] = target: T6, Endoribonuclease toxin MazF (Escherichia coli K-12, UniProt P0AE70); experiment: MazF toxin RNase activators, dose response, biochemical, fluorescence, single-stranded RNA substrate, uHTS hits (AID 588481); type: functional
T6 sequence (P0AE70 whole entry): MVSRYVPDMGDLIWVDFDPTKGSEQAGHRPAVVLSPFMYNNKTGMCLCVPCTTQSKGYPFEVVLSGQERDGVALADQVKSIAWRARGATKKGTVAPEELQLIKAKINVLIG

[15] = target: T6, Endoribonuclease toxin MazF; experiment: fluorescent RNA oligo signal without MazF, dose response, counter-screen for MazEF activator project, biochemical, fluorescence, single-stranded RNase substrate (AID 588502); type: functional
Leucine aminopeptidase = target: T7, Leucine aminopeptidase (Plasmodium falciparum 3D7, UniProt Q8IL11); experiment: P. falciparum M17LAP inhibitors, primary screen, biochemical, fluorogenic H-Leu-NHMec substrate, 1536-well (AID 1619); type: functional
T7 sequence (Q8IL11 whole entry): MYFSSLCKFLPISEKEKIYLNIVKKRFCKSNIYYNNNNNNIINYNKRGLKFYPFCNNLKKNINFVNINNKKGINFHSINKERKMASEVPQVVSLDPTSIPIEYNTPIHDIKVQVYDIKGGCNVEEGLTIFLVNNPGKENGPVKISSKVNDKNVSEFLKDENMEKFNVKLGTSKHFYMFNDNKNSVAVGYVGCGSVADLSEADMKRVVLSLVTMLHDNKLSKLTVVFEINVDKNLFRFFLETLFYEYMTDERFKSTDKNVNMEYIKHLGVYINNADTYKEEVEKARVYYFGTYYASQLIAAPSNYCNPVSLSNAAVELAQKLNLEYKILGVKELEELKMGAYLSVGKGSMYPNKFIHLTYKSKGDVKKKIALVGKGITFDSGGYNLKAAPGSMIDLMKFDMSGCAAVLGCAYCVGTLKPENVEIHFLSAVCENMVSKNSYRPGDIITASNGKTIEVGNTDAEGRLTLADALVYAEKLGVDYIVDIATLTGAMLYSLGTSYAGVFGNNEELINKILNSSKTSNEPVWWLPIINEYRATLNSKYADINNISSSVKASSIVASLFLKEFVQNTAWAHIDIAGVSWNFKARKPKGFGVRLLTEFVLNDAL

[16] = target: T8, High affinity choline transporter 1 (Homo sapiens, UniProt Q9GZV3); experiment: CHT inhibitors, dose response, cell-based, 5-point CRC, membrane potential dye (AID 504840); type: functional
T8 sequence (Q9GZV3 whole entry): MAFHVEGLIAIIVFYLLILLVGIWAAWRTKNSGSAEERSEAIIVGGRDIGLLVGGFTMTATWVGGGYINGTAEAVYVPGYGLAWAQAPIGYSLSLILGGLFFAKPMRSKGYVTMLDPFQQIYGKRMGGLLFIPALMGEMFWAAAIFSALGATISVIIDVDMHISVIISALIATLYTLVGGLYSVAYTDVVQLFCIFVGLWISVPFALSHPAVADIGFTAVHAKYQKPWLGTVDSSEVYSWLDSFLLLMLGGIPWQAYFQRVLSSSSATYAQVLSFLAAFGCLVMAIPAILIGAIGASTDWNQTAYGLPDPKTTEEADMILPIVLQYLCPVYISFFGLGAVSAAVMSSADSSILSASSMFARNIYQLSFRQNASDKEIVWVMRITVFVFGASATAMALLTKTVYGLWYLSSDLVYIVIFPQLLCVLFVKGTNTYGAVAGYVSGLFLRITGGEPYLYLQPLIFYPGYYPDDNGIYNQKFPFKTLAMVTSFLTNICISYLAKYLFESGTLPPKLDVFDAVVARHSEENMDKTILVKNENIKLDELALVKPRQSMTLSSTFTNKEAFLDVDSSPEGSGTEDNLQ

Genome polyprotein = Genome polyprotein (dengue virus type 2, UniProt P29990); experiment: Dengue-2 NS5 methyltransferase inhibitors, primary screen, biochemical, confirmation dose response (AID 588689); type: functional
Sequence of Genome polyprotein (P29990 2492-3391 limits assumed): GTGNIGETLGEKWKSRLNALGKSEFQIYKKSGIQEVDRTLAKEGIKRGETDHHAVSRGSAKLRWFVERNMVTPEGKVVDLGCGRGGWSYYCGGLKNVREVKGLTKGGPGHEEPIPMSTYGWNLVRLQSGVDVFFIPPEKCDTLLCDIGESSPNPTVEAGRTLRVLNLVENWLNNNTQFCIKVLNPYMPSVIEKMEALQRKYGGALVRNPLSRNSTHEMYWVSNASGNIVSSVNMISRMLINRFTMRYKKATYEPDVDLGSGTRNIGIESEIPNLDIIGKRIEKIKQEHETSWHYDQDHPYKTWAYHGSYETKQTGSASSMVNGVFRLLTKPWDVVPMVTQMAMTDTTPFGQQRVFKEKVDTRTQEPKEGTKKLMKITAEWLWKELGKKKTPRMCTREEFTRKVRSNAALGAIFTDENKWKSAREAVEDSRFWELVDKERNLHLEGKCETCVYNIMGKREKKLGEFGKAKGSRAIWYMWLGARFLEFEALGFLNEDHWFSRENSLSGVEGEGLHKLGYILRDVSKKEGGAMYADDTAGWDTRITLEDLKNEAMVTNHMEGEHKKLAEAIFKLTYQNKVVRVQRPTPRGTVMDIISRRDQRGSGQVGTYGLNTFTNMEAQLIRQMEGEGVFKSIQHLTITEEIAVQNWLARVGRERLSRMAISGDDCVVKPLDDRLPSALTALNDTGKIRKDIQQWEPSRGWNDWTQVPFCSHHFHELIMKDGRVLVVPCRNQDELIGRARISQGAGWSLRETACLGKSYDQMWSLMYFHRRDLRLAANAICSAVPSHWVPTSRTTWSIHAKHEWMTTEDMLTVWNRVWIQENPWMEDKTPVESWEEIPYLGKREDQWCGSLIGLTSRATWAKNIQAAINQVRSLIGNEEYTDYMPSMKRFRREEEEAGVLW

Structure (SMILES): COc1ccc(NC(=O)Nc2ccc3c(c2)CC(=O)N([C@H](C)CO)C[C@@H](C)[C@@H](CN(C)Cc2ccc(C(=O)Nc4ccccc4N)cc2)O3)cc1
- AC50 [1]: 2.16 µM (active)

Structure (SMILES): COc1ccc(OCCC(=O)OCC(=O)NCc2ccco2)cc1
- IC50 (Estrogen receptor): 33.3 µM (not active)
- IC50 [2]: 9.12 µM (active)

Structure (SMILES): CC1(O)CC(c2ccc(Cl)cc2)=NN1C(=O)c1ccc([N+](=O)[O-])cc1 (stereo not given)
- EC50 [3]: > 150 µM (inconclusive)
- EC50 [4]: 0.404 µM (active)
- CC50 [5]: 24.7 µM (active)
- EC50 [6]: > 180 µM (inactive)
- CC50 [7]: 15.5 µM (active)
- AC50 [8]: 3.86 µM (active)
- CC50 [9]: > 20 µM (active)
- CC50 [10]: 19.5 µM (active)
- IC50 (cells): 14.2 µM (active)
- EC50 [11]: 12.5 µM (active)

Structure (SMILES): CC(=O)c1sc2nc(-c3cccs3)cc(C(F)(F)F)c2c1N
- EC50 [12]: 45.9 µM (active)
- EC50 [13]: > 300 µM (not active)
- EC50 [14]: > 99 µM (inactive)
- EC50 [15]: 22.3 µM (inactive)

Structure (SMILES): O=[N+]([O-])c1cccc(-c2csc(N/N=C/c3cccc(O)c3)n2)c1
- AC50 [8]: 2.8 µM (active)
- IC50 [2]: 10.8 µM (active)

Structure (SMILES): C[C@@H]1CCCCO[C@@H](CN(C)Cc2ccc(C(=O)Nc3ccccc3N)cc2)[C@@H](C)CN([C@H](C)CO)C(=O)c2cc(NS(C)(=O)=O)ccc2O1
- AC50 [1]: 4.5 µM (active)

Structure (SMILES): CCOC(=O)c1c(NC(=O)C2C3C=CC(C3)C2(C)C(=O)O)sc2c1CCCC2 (stereo not given)
- IC50 (Leucine aminopeptidase): 8.1 µM (active)
- IC50 [2]: 16.1 µM (active)

Structure (SMILES): O=C(NCc1ccccc1)c1sc(=S)n2c1[nH]c(=O)c1ccccc12
- EC50 [3]: > 150 µM (inactive)
- EC50 [4]: 0.706 µM (active)
- EC50 [6]: > 180 µM (inactive)
- IC50 [16]: 22 µM (active)
- IC50 (Genome polyprotein): 77 µM (active)
- EC50 [11]: 6.61 µM (active)

Structure (SMILES): CCCCN1CC(=O)N2[C@@H]3c4cc(Br)ccc4OC[C@@H]3[C@H](C(=O)OCC)[C@]2(C)C1=O
- EC50 [14]: > 99 µM (inactive)
- EC50 [15]: 39.6 µM (inactive)

Structure (SMILES): CCOC(=O)[C@H]1[C@H]2COc3ccccc3[C@@H]2N2C(=O)CN(Cc3ccc(C)cc3)C(=O)[C@@]12C
- EC50 [14]: > 99 µM (inactive)
- EC50 [15]: > 99 µM (inactive)

Structure (SMILES): O=C(NNC(=O)c1cc2cc3ccccc3nc2s1)c1ccc(F)cc1
- IC50 [2]: 4.28 µM (active)

Structure (SMILES): O=C(O)Cc1ccc(NC(=O)c2ccc3c(c2)C(=O)N(Cc2ccco2)C3=O)cc1
- IC50 [2]: 3.79 µM (active)

Structure (SMILES): O=C(COc1cccc2ccccc12)Nc1cc(Cl)ccc1C(=O)O
- IC50 (Genome polyprotein): 40.5 µM (active)
